Like-named read-outs stand apart in the source and are kept apart here.

Format in all cases: cell-based
Assay [1] addresses T1, NOX3 (Homo sapiens, UniProt Q9HBY0).
T1 construct: expressed in transfected cells; host or cells: Expi293 (human embryonic kidney) cells, transient transfection
T1 sequence (Q9HBY0 1-568): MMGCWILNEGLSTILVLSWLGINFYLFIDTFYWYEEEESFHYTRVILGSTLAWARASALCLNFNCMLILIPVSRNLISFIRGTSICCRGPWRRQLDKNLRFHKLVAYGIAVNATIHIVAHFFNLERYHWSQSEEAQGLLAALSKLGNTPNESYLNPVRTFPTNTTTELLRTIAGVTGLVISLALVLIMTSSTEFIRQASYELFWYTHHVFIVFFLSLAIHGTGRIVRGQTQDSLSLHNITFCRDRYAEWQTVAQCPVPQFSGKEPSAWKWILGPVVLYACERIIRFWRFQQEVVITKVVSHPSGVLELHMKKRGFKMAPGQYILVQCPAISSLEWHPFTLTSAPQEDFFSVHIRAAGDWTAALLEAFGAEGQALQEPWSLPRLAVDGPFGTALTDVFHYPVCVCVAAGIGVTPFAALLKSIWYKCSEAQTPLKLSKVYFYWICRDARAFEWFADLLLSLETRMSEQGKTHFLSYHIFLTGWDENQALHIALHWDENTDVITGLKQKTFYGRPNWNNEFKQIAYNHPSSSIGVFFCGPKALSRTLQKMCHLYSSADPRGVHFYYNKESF
T1 sequence (P13498 2-195 partner limits assumed): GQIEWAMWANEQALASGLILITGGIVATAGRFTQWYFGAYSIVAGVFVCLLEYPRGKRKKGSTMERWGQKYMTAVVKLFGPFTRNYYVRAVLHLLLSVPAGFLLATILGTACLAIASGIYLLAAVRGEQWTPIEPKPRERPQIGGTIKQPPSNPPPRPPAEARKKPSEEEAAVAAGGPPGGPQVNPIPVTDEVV
Kind of assay: Expi293 whole cell assay, NOX3 overexpression. Particulars: doses 100x higher than GSK2795039. The protocol: Given concerns about previous assays for specific NOX family members we here report the first use of the Expi293 Expression System (Thermo Scientific) to overexpress NOX1, 2, 3, 4, and 5 in excess of any endogenous NOX proteins present in these cells. Transfections were performed following the manufacturer's instructions using the plasmids for each NOX as described in Supplemental Table 2 except that the enhancer solution provided with the Expi293 system was not used because it promoted enzyme activation.
After the times indicated in Supplemental Table 2, cells were washed and 50,000 added per well of a white 96-well plate (Greiner) along with 50 μM Luminol and 2.5 U horseradish peroxidase/mL in a volume of 90 μl for NOX1, NOX2, and NOX5. Inhibitors or vehicle controls were added and cells were incubated for 20 min at 37 °C prior to activation with the indicated stimuli. For NOX3 and NOX4 (constitutively active), cells were incubated with inhibitor or vehicle control prior to the addition of luminol and HRP. Chemiluminescence was measured every 2 min for 1 s per well at 37 °C in a Varioscan Multimode reader. AUC data were analyzed using GraphPad Prism using non-linear regression analysis after expressing relative to control alone (maximum ROS production).

The subject of assay [2] is NOX1 reconstituted with p47phox and p67phox. Kind of assay: NOX1 reconstituted with cytosolic phox proteins (p47phox and p67phox), data not shown. An excerpt:
Another experiment (data not shown) examined the potency of NCATS-SM7270 against NOX1 and NOX3 reconstituted with cytosolic phox proteins (p47phox and p67phox).

Assay [3] concerns the target T2, NOX2 (Homo sapiens, UniProt P04839).
T2 sequence (P04839 2-570 limits assumed): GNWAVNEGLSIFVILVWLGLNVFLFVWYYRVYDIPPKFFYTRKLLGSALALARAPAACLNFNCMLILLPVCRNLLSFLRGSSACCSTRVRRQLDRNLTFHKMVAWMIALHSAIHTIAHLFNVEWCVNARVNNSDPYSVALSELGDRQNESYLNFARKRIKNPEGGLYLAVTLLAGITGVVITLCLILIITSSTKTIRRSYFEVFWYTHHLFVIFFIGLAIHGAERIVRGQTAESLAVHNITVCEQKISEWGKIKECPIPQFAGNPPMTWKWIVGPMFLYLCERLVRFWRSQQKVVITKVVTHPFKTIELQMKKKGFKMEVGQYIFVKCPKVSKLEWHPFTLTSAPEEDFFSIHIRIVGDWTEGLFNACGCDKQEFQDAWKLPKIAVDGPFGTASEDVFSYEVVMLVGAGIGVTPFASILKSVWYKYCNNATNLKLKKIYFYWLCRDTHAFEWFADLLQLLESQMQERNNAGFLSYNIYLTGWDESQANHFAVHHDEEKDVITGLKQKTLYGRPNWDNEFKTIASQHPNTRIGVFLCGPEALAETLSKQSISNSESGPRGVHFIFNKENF
T2 sequence (P13498 2-195 partner limits assumed): T1 sequence (P13498 2-195 partner limits assumed)
The experiment in a line: NOX2 activity in primary human granulocytes (PMN), luminol chemiluminescence. Set-up: When tested against NOX2 in primary human neutrophils; endogenous in cells; host or cells: primary human granulocytes (PMN) from donor blood. The protocol:
Human blood was obtained after informed consent by the Department of Transfusion Medicine (NIH Clinical Center) and provided as de-identified specimens. Human granulocytes were isolated using Percoll density fractionation as described and NOX2 activity was assessed in white polypropylene flat bottom 96 well plates following 15 min of preincubation at 37 °C with compounds or vehicle controls using 50 μM luminol as a chemiluminescence enhancer in an assay volume of 100 μl RPMI1640 with 1.1 × 10^5 cells/well in Varioskan Lux luminometer for 30 cycles of 1 s per well (approximately 1 h).

For `Cn1ccc(S(=O)(=O)Nc2ccnc3c2c(-c2ccc4ccn(C)c4c2)cn3C2CC2)n1` [NCATS-SM7270, N-(1-cyclopropyl-3-(1-methyl-1H-indol-6-yl)-1H-pyrrolo [2,3-b]pyridin-4-yl)-1-methyl-1H-pyrazole-3-sulfonamide], the “activity against NOX3” value in assay [1] is “no detectable activity”. In addition, the “dose needed to observe inhibition of NOX1 versus NOX2” value in assay [2] is approximately 10 fold. Besides, the IC50 stood at 4.09 ± 1 µM in assay [3] (mean of 6 donors ± S.D., read-out: IC50 against NOX2 in primary human neutrophils) and 2.15 µM in assay [3] (mean ± SD, n in cell, read-out: NOX-2 IC50 from PMN).

By IC50 is commonly meant the concentration that inhibits the measured activity by half.

The values above are taken from paper PMC9894920, “Development of an improved and specific inhibitor of NADPH oxidase 2 to treat traumatic brain injury” (Redox Biology, 2023).
